Test [1] has as its target JAK1 (Homo sapiens (Human), UniProt P23458). The test can be described thus: JAK1 enzyme activity assay (Thermo Fisher SelectScreen, Z-lyte). Format: biochemical. The note with it: read-out: JAK1 Inhibition IC50. As for the experimental part:
(§1) JAK1, JAK2, JAK3, and Tyk-2 Enzyme Activity Assays
(§2) The inhibitory potency of candidate compounds of JAK1, JAK2, and Tyk-2 was done at Thermo Fisher Scientific in their Selectscreen using a Z-lyte assay. Following are the assay details for each enzyme.
JAK: The 2×JAK-enzyme/Tyr 06 mixture is prepared in 50 mM HEPES pH 6.5, 0.01% BRIJ-35, 10 mM MgCl2, 1 mM EGTA, 0.02% NaN3. The final 10 μL of the Kinase Reaction consists of 21.2-91.5 ng JAK and 2 M Tyr 06 in 50 mM HEPES pH 7.0, 0.01% BRIJ-35, 10 mM MgCl2, 1 mM EGTA, 0.01% NaN3. After the one hour Kinase Reaction incubation, 5 μL of a 1:128 dilution of Development Reagent is added.
(§3) Data reduction for JAK1, JAK2 and TYK2 is done the same, independent of the enzyme run. In summary, background signal is defined in the absence of enzyme and uninhibited signal is defined in the presence of vehicle (2% DMSO) alone. Compounds were evaluated in an 11 point dose-response ranging from […] to 0.34 nM. IC50 values of compounds are determined using a 4 parameter logistical fit of emission ratio as a function of the concentration of compound.

The target of test [2] is JAK2 (Homo sapiens (Human), UniProt O60674). Put plainly: JAK2 enzyme activity assay (Thermo Fisher SelectScreen, Z-lyte). The class given is biochemical. The conditions noted are these: read-out: JAK2 Inhibition IC50. How it is done:
as §1, §2
JAK2: The 2×JAK2/Tyr 06 mixture is prepared in 50 mM HEPES pH 7.5, 0.01% BRIJ-35, 10 mM MgCl2, 1 mM EGTA. The final 10 μL Kinase Reaction consists of 0.12-0.5 ng JAK2 and 2 M Tyr 06 in 50 mM HEPES pH 7.5, 0.01% BRIJ-35, 10 mM MgCl2, 1 mM EGTA. After the one hour Kinase Reaction incubation, 5 μL of a 1:128 dilution of Development Reagent A is added.
as §3

Test [3] has as its target JAK3 (a.a. 781-1124) (Homo sapiens (Human), UniProt P52333). The test can be described thus: JAK3 enzyme activity assay (SRCtide phosphorylation, Caliper). The class given is biochemical. The note with it: 1 uM ATP; read-out: JAK3 Inhibition IC50. How it is done:
as §1
Kinase reactions were run in a 384-well Greiner plate with 2% final DMSO concentration under the buffer conditions of 20 mM HEPES, pH 7.5, 10 mM MgCl2, 0.01% BSA, and 0.0005% Tween-20. The kinase reaction components were 2.5 nM JAK3, 1 μM SRCtide peptide and 1 uM ATP. Examples were tested in dose-response starting at 2 M (11 concentrations, 3-fold serial dilution, duplicate reactions). The reactions were incubated at room temperature for 40 minutes, then stopped by adding a 1:1 volume of 30 mM EDTA in 20 mM HEPES, pH 7.5 (15 mM EDTA final). After the reaction was stopped, the phosphorylated and unphosphorylated peptides were separated and quantified using a Caliper LC3000/EZ-Reader system and HTS Well Analyzer Software (Caliper, A PerkinElmer Company, Hopkinton, Mass.). GraFit (Erithacus Software Ltd., Horley, U.K.) was used to calculate inhibitor potency by fitting dose-response data to the 4-parameter logistical IC50 equation.

Test [4] concerns the target Tyk-2 (Homo sapiens (Human), UniProt P29597). Put plainly: Tyk-2 enzyme activity assay (Thermo Fisher SelectScreen, Z-lyte). Format: biochemical. The note with it: read-out: Tyk-2 Inhibition IC50. As for the experimental part: as §1, §2
TYK2: The 2×TYK2/Tyr 03 mixture is prepared in 50 mM HEPES pH 6.5, 0.01% BRIJ-35, 10 mM MgCl2, 1 mM EGTA, 0.02% NaN3. The final 10 μL Kinase Reaction consists of 3.75-15 ng TYK2 and 2 M Tyr 03 in 50 mM HEPES pH 7.0, 0.01% BRIJ-35, 10 mM MgCl2, 1 mM EGTA, 0.01% NaN3. After the one hour KinaseReaction incubation, 5 μL of a 1:4096 dilution of Development Reagent A is added.
as §3

Test [5] relates to IL-2 stimulated STAT5 phosphorylation on Tyr694 (JAK1/3). Put plainly: JAK1/3 cellular target modulation: IL-2 stimulated phospho-STAT5 in PBMC. Format: cell-based. The conditions noted are these: human PBMC, IL-2 25 ng/ml; read-out: IL2-STAT5 IC50. From the text:
(§4) JAK Cellular Target Modulation Assays
(§5) Target modulation was based upon the ability of a compound to inhibit JAK isoform specific phosphorylation of selected substrates. IL-2 stimulated STAT5 phosphorylation on Tyr694 was used to assess JAK1/3 compound selectivity. GM-CSF stimulated STAT5 phosphorylation on Tyr694 was used to assess JAK2 compound selectivity. IFNγ stimulated STAT1 phosphorylation on Tyr701 was used to assess JAK1/2 compound selectivity. IL-12 stimulated STAT4 phosphorylation on Tyr693 was used to assess JAK2/TYK2 compound selectivity. For all four assays, human PBMC from frozen stocks were thawed, pelleted, resuspended in complete media (90% RPMI, 10% heat inactivated FBS, 10 mM HEPES, 47 μM 2-ME, pen/strep) and placed in wells of a 96 well V-bottom plate at 200,000 per well in 120 μl complete media. Compounds were added as 15 μl per well of 10× working stock solutions in complete media with 1% DMSO (or medium with 1% DMSO for controls) and placed on a plate shaker in a 37° C. incubator with 5% CO2 for 1 hour with gentle shaking (setting of 3). Stimulation used the addition of soluble cytokines. For the JAK1/3 phospho-STAT5 assay, 15 μl of 10× working stock recombinant human IL-2 was added to a final concentration of 25 ng/ml. For the JAK2 phospho-STAT5 assay, 15 μl of 10× working stock recombinant human GM-CSF was added to a final concentration of 5 ng/ml. For the JAK1/2 phospho-STAT1 assay, 15 μl of 10× working stock of recombinant human IFNγ was added to a final concentration of 10 ng/ml. For the JAK2/TYK2 phospho-STAT4 assay, 15 μl of 10× working stock of recombinant human IL-12 was added to a final concentration of 1.7 ng/ml. Plates were then placed back on the plate shaker in the incubator for an additional 5, 5, 10, and 25 minutes respectively upon which the plates were removed from the incubator, sealed with a plate sealer and the cells pelleted at 400×g for 5 minutes. After pelleting, the media was removed by aspiration and the cells were lysed in assay specific cell lysis buffer. The levels of phospho-STATS were determined using a Phospho (Tyr694) STAT5a,b Whole Cell Lysate kit from Meso Scale Discovery. Levels of phospho-STAT1 were determined using a CST-PathScan Phospho-STAT1 (Tyr701) Sandwich ELISA kit. Levels of phospho-STAT4 were determined using a Phospho-STAT4 (Tyr693) Whole Cell Lysate kit from Meso Scale Discovery.

In test [6] the test system is IFNγ stimulated STAT1 phosphorylation on Tyr701 (JAK1/2). The test can be described thus: JAK1/2 cellular target modulation: IFNγ stimulated phospho-STAT1 in PBMC. The class given is cell-based. The note with it: human PBMC, IFNγ 10 ng/ml; read-out: Infγ-STAT1 IC50.
Source text: as §4, §5

Test [7] deals with IL-12 stimulated STAT4 phosphorylation on Tyr693 (JAK2/TYK2). The test can be described thus: JAK2/TYK2 cellular target modulation: IL-12 stimulated phospho-STAT4 in PBMC. Format: cell-based. The conditions noted are these: human PBMC, IL-12 1.7 ng/ml; read-out: IL12-STAT4 IC50.
Source text: as §4, §5

Where a name gives a salt, the structure may show the parent alone.

Sequence of JAK3 (a.a. 781-1124) (P52333 781-1124): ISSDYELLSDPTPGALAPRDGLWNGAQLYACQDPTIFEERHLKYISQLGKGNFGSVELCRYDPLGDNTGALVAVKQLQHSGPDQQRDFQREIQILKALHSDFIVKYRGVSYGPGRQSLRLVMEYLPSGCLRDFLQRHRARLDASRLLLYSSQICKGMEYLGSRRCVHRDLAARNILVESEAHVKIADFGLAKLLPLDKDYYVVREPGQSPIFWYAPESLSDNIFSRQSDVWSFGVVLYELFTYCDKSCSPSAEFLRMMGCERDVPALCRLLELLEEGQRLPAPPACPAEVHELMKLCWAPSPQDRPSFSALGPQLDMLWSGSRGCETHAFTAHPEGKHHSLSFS
Sequence of JAK2 (O60674 whole entry): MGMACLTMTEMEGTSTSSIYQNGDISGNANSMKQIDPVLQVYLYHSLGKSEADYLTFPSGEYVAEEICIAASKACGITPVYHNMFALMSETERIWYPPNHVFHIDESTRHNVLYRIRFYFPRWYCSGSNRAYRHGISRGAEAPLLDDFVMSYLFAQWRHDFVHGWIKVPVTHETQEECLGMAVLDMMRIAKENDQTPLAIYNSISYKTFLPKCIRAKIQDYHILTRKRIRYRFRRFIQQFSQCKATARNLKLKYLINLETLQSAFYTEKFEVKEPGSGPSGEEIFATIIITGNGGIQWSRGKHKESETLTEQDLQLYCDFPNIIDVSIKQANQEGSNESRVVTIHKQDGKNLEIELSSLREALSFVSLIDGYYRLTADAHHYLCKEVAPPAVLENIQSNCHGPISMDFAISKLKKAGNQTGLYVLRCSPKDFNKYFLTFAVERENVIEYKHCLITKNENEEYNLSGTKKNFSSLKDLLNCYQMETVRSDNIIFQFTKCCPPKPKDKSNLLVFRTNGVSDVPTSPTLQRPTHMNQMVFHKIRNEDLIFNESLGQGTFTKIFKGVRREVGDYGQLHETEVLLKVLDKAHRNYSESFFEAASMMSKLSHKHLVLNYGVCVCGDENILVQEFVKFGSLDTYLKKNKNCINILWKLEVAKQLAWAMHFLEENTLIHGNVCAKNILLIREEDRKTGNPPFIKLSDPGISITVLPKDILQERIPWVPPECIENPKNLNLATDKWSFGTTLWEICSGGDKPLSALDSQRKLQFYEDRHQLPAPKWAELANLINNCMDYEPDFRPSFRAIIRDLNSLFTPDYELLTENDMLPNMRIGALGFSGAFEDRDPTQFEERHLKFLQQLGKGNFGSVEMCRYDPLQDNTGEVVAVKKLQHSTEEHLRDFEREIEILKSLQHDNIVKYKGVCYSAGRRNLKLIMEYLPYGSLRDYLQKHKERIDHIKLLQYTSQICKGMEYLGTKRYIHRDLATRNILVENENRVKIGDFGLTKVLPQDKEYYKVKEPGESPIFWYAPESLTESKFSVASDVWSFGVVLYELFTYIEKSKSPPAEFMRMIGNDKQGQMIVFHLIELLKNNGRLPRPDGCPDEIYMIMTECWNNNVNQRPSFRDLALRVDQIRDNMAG
Sequence of JAK1 (P23458 whole entry): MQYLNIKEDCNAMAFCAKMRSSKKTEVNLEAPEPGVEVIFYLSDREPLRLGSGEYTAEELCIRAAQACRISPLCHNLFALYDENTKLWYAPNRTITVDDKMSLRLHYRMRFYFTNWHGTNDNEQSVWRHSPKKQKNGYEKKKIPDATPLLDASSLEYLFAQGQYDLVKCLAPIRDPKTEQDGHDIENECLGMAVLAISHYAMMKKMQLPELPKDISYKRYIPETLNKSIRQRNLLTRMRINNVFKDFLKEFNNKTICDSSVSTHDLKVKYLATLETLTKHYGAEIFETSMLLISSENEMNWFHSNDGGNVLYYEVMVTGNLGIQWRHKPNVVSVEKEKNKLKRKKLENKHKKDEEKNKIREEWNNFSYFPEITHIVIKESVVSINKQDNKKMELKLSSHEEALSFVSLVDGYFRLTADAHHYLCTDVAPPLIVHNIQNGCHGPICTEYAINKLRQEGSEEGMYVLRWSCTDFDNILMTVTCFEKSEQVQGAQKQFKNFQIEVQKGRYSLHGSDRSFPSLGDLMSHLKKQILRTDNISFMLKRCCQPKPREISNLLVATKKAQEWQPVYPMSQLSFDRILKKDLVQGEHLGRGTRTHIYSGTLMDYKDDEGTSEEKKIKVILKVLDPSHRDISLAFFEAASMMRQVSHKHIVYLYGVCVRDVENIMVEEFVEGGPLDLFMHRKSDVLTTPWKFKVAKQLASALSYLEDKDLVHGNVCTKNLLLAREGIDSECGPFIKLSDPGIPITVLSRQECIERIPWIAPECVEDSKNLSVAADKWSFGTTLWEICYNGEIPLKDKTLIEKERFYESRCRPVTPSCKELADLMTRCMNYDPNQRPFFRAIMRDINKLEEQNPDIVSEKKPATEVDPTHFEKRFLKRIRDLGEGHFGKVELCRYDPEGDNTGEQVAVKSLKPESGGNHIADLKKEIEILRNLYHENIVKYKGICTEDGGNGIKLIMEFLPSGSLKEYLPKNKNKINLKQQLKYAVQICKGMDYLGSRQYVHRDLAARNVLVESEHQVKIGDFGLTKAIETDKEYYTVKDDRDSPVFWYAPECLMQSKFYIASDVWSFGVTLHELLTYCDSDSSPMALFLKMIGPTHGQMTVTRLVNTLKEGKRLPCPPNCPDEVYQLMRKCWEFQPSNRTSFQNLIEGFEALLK
Sequence of Tyk-2 (P29597 whole entry): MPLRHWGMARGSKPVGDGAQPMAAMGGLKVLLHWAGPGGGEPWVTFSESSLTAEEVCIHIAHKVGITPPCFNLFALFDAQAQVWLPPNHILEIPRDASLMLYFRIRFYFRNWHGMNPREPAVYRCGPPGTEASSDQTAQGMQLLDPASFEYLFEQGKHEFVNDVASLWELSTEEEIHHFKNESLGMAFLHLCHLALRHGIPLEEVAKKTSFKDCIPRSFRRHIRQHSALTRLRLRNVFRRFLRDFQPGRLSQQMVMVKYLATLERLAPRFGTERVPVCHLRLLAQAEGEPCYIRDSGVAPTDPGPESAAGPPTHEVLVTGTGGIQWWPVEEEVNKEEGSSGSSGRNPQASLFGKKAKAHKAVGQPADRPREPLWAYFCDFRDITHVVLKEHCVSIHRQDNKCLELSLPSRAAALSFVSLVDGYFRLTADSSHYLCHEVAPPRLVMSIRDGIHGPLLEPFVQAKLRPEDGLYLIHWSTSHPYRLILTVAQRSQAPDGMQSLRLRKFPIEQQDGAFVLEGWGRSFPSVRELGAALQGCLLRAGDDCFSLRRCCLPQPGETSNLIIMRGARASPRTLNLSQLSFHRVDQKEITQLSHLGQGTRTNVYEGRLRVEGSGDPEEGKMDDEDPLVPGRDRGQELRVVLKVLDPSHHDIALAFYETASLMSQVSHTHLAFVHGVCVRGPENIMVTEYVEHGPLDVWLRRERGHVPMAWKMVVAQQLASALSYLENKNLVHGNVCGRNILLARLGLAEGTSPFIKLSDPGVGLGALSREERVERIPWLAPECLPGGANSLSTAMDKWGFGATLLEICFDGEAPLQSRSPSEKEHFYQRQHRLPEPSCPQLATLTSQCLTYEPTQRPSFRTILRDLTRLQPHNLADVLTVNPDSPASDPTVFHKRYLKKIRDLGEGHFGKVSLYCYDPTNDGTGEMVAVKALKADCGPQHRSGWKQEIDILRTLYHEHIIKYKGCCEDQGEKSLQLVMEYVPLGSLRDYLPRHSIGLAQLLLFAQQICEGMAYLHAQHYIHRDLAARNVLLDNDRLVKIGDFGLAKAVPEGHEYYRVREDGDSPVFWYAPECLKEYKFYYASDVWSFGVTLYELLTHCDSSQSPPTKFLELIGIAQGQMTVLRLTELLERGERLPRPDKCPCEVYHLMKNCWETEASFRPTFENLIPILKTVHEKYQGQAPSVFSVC

On to `C[S+]([O-])c1cnc(-c2cnc3[nH]ccc3c2N[C@@H]2CCCN(C(=O)CC#N)C2)s1` (stereo partly drawn) [Example 45, 3-((3R)-3-((5-(5-(methylsulfinyl)thiazol-2-yl)-1H-pyrrolo[2,3-b]pyridin-4-yl)amino)piperidin-1-yl)-3-oxopropanenitrile], for which the IC50 in test [1] was at most 10 nM; in test [2], at most 10 nM; in test [3], at most 10 nM; in test [4], at most 10 nM; in test [5], 100 to 1000 nM; in test [6], 100 to 1000 nM. Besides, in test [7], the IC50 is over 1000 nM.

For `N#CCC(=O)N1CCC[C@@H](Nc2c(-c3ccsn3)cnc3[nH]ccc23)C1` [Example 41, (R)-3-(3-((5-(isothiazol-3-yl)-1H-pyrrolo[2,3-b]pyridin-4-yl)amino)piperidin-1-yl)-3-oxopropanenitrile], the IC50 in test [1] is at most 10 nM; in test [2] it was at most 10 nM; in test [3], at most 10 nM; in test [4], at most 10 nM; in test [5], at most 100 nM; in test [6], 100 to 1000 nM. For the same compound, in test [7], the IC50 fell in the range of 100 to 1000 nM.

Turning to `C[C@H]1CC[C@@H](Nc2c(-c3ncco3)cnc3[nH]ccc23)CN1C(=O)CC#N` [Example 28, 3-((2S,5R)-2-methyl-5-((5-(oxazol-2-yl)-1H-pyrrolo[2,3-b]pyridin-4-yl)amino)piperidin-1-yl)-3-oxopropanenitrile], the IC50 in test [1] was at most 10 nM; in test [2] it was at most 10 nM; in test [3], at most 10 nM; in test [4], at most 10 nM; in test [5] it was at most 100 nM; in test [6] it was at most 100 nM. Moreover, the IC50 in test [7] was in the range of 100 to 1000 nM.

`CSc1nccc(-c2cnc3[nH]ccc3c2N[C@@H]2CCCN(C(=O)CC#N)C2)n1` [Example 49, (R)-3-(3-((5-(2-(methylthio)pyrimidin-4-yl)-1H-pyrrolo[2,3-b]pyridin-4-yl)amino)piperidin-1-yl)-3-oxopropanenitrile]: the IC50 in test [1] is at most 10 nM; in test [2] it was 10 to 100 nM; in test [3], at most 10 nM; in test [4], 10 to 100 nM; in test [5], at most 100 nM; in test [6], at most 100 nM. In addition, the IC50 in test [7] was over 1000 nM.

Take `CS(=O)(=O)c1ccc(-c2cnc3[nH]ccc3c2N[C@@H]2CCCN(C(=O)CC#N)C2)nc1` [Example 55, (R)-3-(3-((5-(5-(methylsulfonyl)pyridin-2-yl)-1H-pyrrolo[2,3-b]pyridin-4-yl)amino)piperidin-1-yl)-3-oxopropanenitrile]: the half-inhibitory concentration (IC50) in test [1] is at most 10 nM; in test [2], 10 to 100 nM; in test [3], at most 10 nM; in test [4] it was at most 10 nM; in test [5], at most 100 nM; in test [6] it was 100 to 1000 nM. The IC50 in test [7] is over 1000 nM.

Take `COc1nccc(-c2cnc3[nH]ccc3c2N[C@@H]2CCCN(C(=O)CC#N)C2)n1` [Example 43, (R)-3-(3-((5-(2-methoxypyrimidin-4-yl)-1H-pyrrolo[2,3-b]pyridin-4-yl)amino)piperidin-1-yl)-3-oxopropanenitrile]: the 50% inhibitory concentration (IC50) in test [1] was at most 10 nM; in test [2], 10 to 100 nM; in test [3] it was 10 to 100 nM; in test [4], 10 to 100 nM; in test [5], at most 100 nM; in test [6], 100 to 1000 nM. The IC50 in test [7] is over 1000 nM.

For the compound `CNC(=O)c1csc(-c2cnc3[nH]ccc3c2N[C@@H]2CCCN(C(=O)CC#N)C2)n1` [Example 35, (R)-2-(4-((1-(2-cyanoacetyl)piperidin-3-yl)amino)-1H-pyrrolo[2,3-b]pyridin-5-yl)-N-methylthiazole-4-carboxamide], the IC50 in test [1] was at most 10 nM; in test [2], 10 to 100 nM; in test [3] it was at most 10 nM; in test [4], 10 to 100 nM; in test [5], 100 to 1000 nM; in test [7], over 1000 nM.

Take `CNCCOc1cccc(-c2cnc3[nH]ccc3c2N[C@@H]2CCCN(C(=O)CC#N)C2)n1` [Example 58, (R)-3-(3-((5-(6-(2-(methylamino)ethoxy)pyridin-2-yl)-1H-pyrrolo[2,3-b]pyridin-4-yl)amino)piperidin-1-yl)-3-oxopropanenitrile hydrochloride]: the IC50 in test [1] was at most 10 nM; in test [2], 100 to 1000 nM; in test [3], 10 to 100 nM; in test [4], 100 to 1000 nM; in test [5] it was 100 to 1000 nM; in test [6] it was over 1000 nM.

Regarding `N#CCC(=O)N1CCC[C@@H](Nc2c(-c3cncs3)cnc3[nH]ccc23)C1` [Example 16, (R)-3-oxo-3-(3-((5-(thiazol-5-yl)-1H-pyrrolo[2,3-b]pyridin-4-yl)amino)piperidin-1-yl)propanenitrile], the IC50 is 10 to 100 nM in test [1]; 100 to 1000 nM in test [2]; 10 to 100 nM in test [3]; 100 to 1000 nM in test [4]; 100 to 1000 nM in test [5]; over 1000 nM in test [6].

Take `CC(=O)c1cnc(-c2cnc3[nH]ccc3c2N[C@@H]2CCCN(C(=O)CC#N)C2)o1` [Example 66, (R)-3-(3-((5-(5-acetyloxazol-2-yl)-1H-pyrrolo[2,3-b]pyridin-4-yl)amino)piperidin-1-yl)-3-oxopropanenitrile]: the IC50 in test [1] was at most 10 nM; in test [2] it was 10 to 100 nM; in test [3] it was at most 10 nM; in test [4], 10 to 100 nM; in test [5] it was at most 100 nM; in test [6], 100 to 1000 nM.

For the origin of these results see patent US11420966B2 (ACLARIS THERAPEUTICS, INC., priority 2019, dated 2022).
